Patent US20200405697A1, “Antitumor Agent” (Taiho Pharmaceutical Co., Ltd, priority 2017, published 2020)

Columns and labels:
[1] = tested on: A549 (Human lung cancer cell line); assay: Effect of combination of sulfonamide compound and other antitumor agent (CellTiter-Glo, combination index): A549
[2] = tested on: MV-4-11 (Human blood cancer cell line); assay: Effect of combination of sulfonamide compound and other antitumor agent (CellTiter-Glo, combination index): MV-4-11
Protocol: Each cell line was seeded at 90 L/well to a 96-well culture plate (Thermo Fisher Scientific, Inc.) according to the above tables. The cell-seeded plate was cultured in an incubator set to 37° C. and 500 CO2. On the day following seeding, varying concentrations of the sulfonamide compound and the other antitumor agent were added in combination to the cells. […] The serial dilutions of each compound, or DW was added at 5μL/well to the plate such that each compound and DW, or the sulfonamide compound and the other antitumor agent were combined. […] The plate after the addition was cultured at 37° C. for 3 days under 5% CO2 conditions.
Three days later, CellTiter-Glo(R) 2.0 Reagent (Promega Corporation) was added at 100 μL/well, and the amount of luminescence was measured using a plate reader EnSpire(R) Multimode Plate Reader (PerkinElmer Co., Ltd.).
An average value from 3 wells was calculated as to each drug condition from the obtained data, and cell survival rate normalized against control wells supplemented with the vehicle (DW) was calculated. A Fa (fractional inhibition) value was calculated by subtracting the cell survival rate from 1.

[3] = Example Compound 14 874 nM + Cytarabine 72.2 nM
[4] = Example Compound 14 1310 nM + Cytarabine 108 nM
[5] = Example Compound 14 1970 nM + Cytarabine 163 nM
[6] = Example Compound 14 2950 nM + Cytarabine 244 nM
[7] = Example Compound 14 4420 nM + Cytarabine 365 nM
[8] = Example Compound 209A 188 nM + Cytarabine 72.2 nM
[9] = Example Compound 209A 282 nM + Cytarabine 108 nM
[10] = Example Compound 209A 635 nM + Cytarabine 244 nM
[11] = Example Compound 209A 952 nM + Cytarabine 365 nM
[12] = Example Compound 235A 780 nM + Cytarabine 111 nM
[13] = Example Compound 235A 1170 nM + Cytarabine 166 nM
[14] = Example Compound 235A 1750 nM + Cytarabine 249 nM
[15] = Example Compound 5 247 nM + Cytarabine 175 nM
[16] = Example Compound 5 555 nM + Cytarabine 393 nM
[17] = Example Compound 5 833 nM + Cytarabine 590 nM
[18] = Example Compound 5 1250 nM + Cytarabine 885 nM
[19] = Example Compound 14 519 nM + Cytarabine 175 nM
[20] = Example Compound 14 1170 nM + Cytarabine 394 nM
[21] = Example Compound 14 1750 nM + Cytarabine 589 nM
[22] = Example Compound 14 2630 nM + Cytarabine 886 nM
[23] = Example Compound 209A 96.6 nM + Cytarabine 175 nM
[24] = Example Compound 209A 217 nM + Cytarabine 393 nM
[25] = Example Compound 209A 326 nM + Cytarabine 590 nM
[26] = Example Compound 235A 90.1 nM + Cytarabine 116 nM
[27] = Example Compound 235A 135 nM + Cytarabine 174 nM
[28] = Example Compound 235A 304 nM + Cytarabine 393 nM
[29] = Example Compound 235A 456 nM + Cytarabine 589 nM
[30] = Example Compound 235A 684 nM + Cytarabine 884 nM
[31] = Example Compound 14 874 nM + Fludarabine nucleoside 5930 nM
[32] = Example Compound 14 1310 nM + Fludarabine nucleoside 8890 nM
[33] = Example Compound 14 1970 nM + Fludarabine nucleoside 13400 nM
[34] = Example Compound 14 2950 nM + Fludarabine nucleoside 20000 nM
[35] = Example Compound 209A 188 nM + Fludarabine nucleoside 5930 nM
[36] = Example Compound 209A 282 nM + Fludarabine nucleoside 8890 nM
[37] = Example Compound 209A 635 nM + Fludarabine nucleoside 20000 nM
[38] = Example Compound 235A 520 nM + Fludarabine nucleoside 8870 nM
[39] = Example Compound 235A 780 nM + Fludarabine nucleoside 13300 nM
[40] = Example Compound 235A 1170 nM + Fludarabine nucleoside 20000 nM
[41] = Example Compound 235A 1750 nM + Fludarabine nucleoside 29900 nM
[42] = Example Compound 5 370 nM + Fludarabine nucleoside 6150 nM
[43] = Example Compound 5 555 nM + Fludarabine nucleoside 9220 nM
[44] = Example Compound 14 778 nM + Fludarabine nucleoside 6150 nM
[45] = Example Compound 14 1170 nM + Fludarabine nucleoside 9250 nM
[46] = Example Compound 235A 304 nM + Fludarabine nucleoside 9220 nM
[47] = Example Compound 14 1970 nM + Decitabine 1340 nM
[48] = Example Compound 14 2950 nM + Decitabine 2000 nM
[49] = Example Compound 14 4420 nM + Decitabine 3000 nM
[50] = Example Compound 209A 635 nM + Decitabine 2000 nM
[51] = Example Compound 235A 520 nM + Decitabine 1340 nM
[52] = Example Compound 235A 780 nM + Decitabine 2020 nM
[53] = Example Compound 235A 1170 nM + Decitabine 3020 nM
[54] = Example Compound 5 247 nM + Decitabine 50.2 nM
[55] = Example Compound 5 370 nM + Decitabine 75.2 nM
[56] = Example Compound 5 555 nM + Decitabine 113 nM
[57] = Example Compound 5 833 nM + Decitabine 169 nM
[58] = Example Compound 5 1250 nM + Decitabine 254 nM
[59] = Example Compound 14 519 nM + Decitabine 50.1 nM
[60] = Example Compound 14 778 nM + Decitabine 75.2 nM
[61] = Example Compound 14 1170 nM + Decitabine 113 nM
[62] = Example Compound 14 1750 nM + Decitabine 169 nM
[63] = Example Compound 14 2630 nM + Decitabine 254 nM
[64] = Example Compound 209A 64.4 nM + Decitabine 33.4 nM
[65] = Example Compound 209A 96.6 nM + Decitabine 50.1 nM
[66] = Example Compound 209A 217 nM + Decitabine 113 nM
[67] = Example Compound 209A 326 nM + Decitabine 169 nM
[68] = Example Compound 235A 90.1 nM + Decitabine 33.4 nM
[69] = Example Compound 235A 135 nM + Decitabine 50.1 nM
[70] = Example Compound 235A 304 nM + Decitabine 113 nM
[71] = Example Compound 235A 456 nM + Decitabine 169 nM
[72] = Example Compound 235A 684 nM + Decitabine 254 nM

Compound `Nc1ccn([C@@H]2O[C@H](CO)[C@@H](O)[C@@H]2O)c(=O)n1` [Cytarabine, cytarabine] has a CI value [1, 3] of 0.670, a Fa value [1, 3] of 0.3745 and a CI value [1, 4] of 0.790. It also gave a Fa value [1, 4] of 0.4356, a CI value [1, 5] of 0.616 and a Fa value [1, 5] of 0.6170. It also gave a CI value [1, 6] of 0.498, a Fa value [1, 6] of 0.7754 and a CI value [1, 7] of 0.490. For the same compound, the Fa value [1, 7] was 0.8591, the CI value [1, 8] was 0.777 and the Fa value [1, 8] was 0.3588. The CI value [1, 9] was 0.759, the Fa value [1, 9] was 0.4675 and the CI value [1, 10] was 0.474. For the same compound, the Fa value [1, 10] was 0.7994, the CI value [1, 11] was 0.574 and the Fa value [1, 11] was 0.8410. It also gave a CI value [1, 12] of 0.878, a Fa value [1, 12] of 0.4015 and a CI value [1, 13] of 0.693. The Fa value [1, 13] was 0.6327, the CI value [1, 14] was 0.581 and the Fa value [1, 14] was 0.8184. The CI value [2, 15] was 0.638, the Fa value [2, 15] was 0.4093 and the CI value [2, 16] was 0.553. The Fa value [2, 16] was 0.9212, the CI value [2, 17] was 0.366 and the Fa value [2, 17] was 0.9948. It also gave a CI value [2, 18] of 0.386, a Fa value [2, 18] of 0.9986 and a CI value [2, 19] of 0.766. It also gave a Fa value [2, 19] of 0.2908, a CI value [2, 20] of 0.599 and a Fa value [2, 20] of 0.8743. For the same compound, the CI value [2, 21] was 0.387, the Fa value [2, 21] was 0.9860 and the CI value [2, 22] was 0.269. It also gave a Fa value [2, 22] of 0.9984, a CI value [2, 23] of 0.739 and a Fa value [2, 23] of 0.5055. The CI value [2, 24] was 0.510, the Fa value [2, 24] was 0.9736 and the CI value [2, 25] was 0.330. The Fa value [2, 25] was 0.9981, the CI value [2, 26] was 0.740 and the Fa value [2, 26] was 0.1704. For the same compound, the CI value [2, 27] was 0.645, the Fa value [2, 27] was 0.4683 and the CI value [2, 28] was 0.510. For the same compound, the Fa value [2, 28] was 0.9522, the CI value [2, 29] was 0.365 and the Fa value [2, 29] was 0.9958. It also gave a CI value [2, 30] of 0.374 and a Fa value [2, 30] of 0.9989.
`Nc1nc(F)nc2c1ncn2[C@@H]1O[C@H](CO)[C@@H](O)[C@@H]1O` [Fludarabine nucleoside, fludarabine nucleoside] showed a CI value [1, 31] of 0.549, a Fa value [1, 31] of 0.3063 and a CI value [1, 32] of 0.387. For the same compound, the Fa value [1, 32] was 0.7007, the CI value [1, 33] was 0.377 and the Fa value [1, 33] was 0.8610. For the same compound, the CI value [1, 34] was 0.537, the Fa value [1, 34] was 0.8736 and the CI value [1, 35] was 0.558. The Fa value [1, 35] was 0.3666, the CI value [1, 36] was 0.386 and the Fa value [1, 36] was 0.7059. For the same compound, the CI value [1, 37] was 0.515, the Fa value [1, 37] was 0.8634 and the CI value [1, 38] was 0.568. It also gave a Fa value [1, 38] of 0.4460, a CI value [1, 39] of 0.423 and a Fa value [1, 39] of 0.7798. The CI value [1, 40] was 0.504, the Fa value [1, 40] was 0.8525 and the CI value [1, 41] was 0.734. It also gave a Fa value [1, 41] of 0.8595, a CI value [2, 42] of 0.739 and a Fa value [2, 42] of 0.6600. The CI value [2, 43] was 0.293, the Fa value [2, 43] was 0.9981 and the CI value [2, 44] was 0.786. For the same compound, the Fa value [2, 44] was 0.5954, the CI value [2, 45] was 0.296 and the Fa value [2, 45] was 0.9984. For the same compound, the CI value [2, 46] was 0.320 and the Fa value [2, 46] was 0.9988.
For `Nc1ncn([C@H]2C[C@H](O)[C@@H](CO)O2)c(=O)n1` [Decitabine, decitabine], the CI value [1, 47] was 0.542, the Fa value [1, 47] was 0.3867 and the CI value [1, 48] was 0.577. The Fa value [1, 48] was 0.5183, the CI value [1, 49] was 0.602 and the Fa value [1, 49] was 0.6737. For the same compound, the CI value [1, 50] was 0.569, the Fa value [1, 50] was 0.5615 and the CI value [1, 51] was 0.570. It also gave a Fa value [1, 51] of 0.2897, a CI value [1, 52] of 0.567 and a Fa value [1, 52] of 0.4383. For the same compound, the CI value [1, 53] was 0.650, the Fa value [1, 53] was 0.5537 and the CI value [2, 54] was 0.685. It also gave a Fa value [2, 54] of 0.3382, a CI value [2, 55] of 0.725 and a Fa value [2, 55] of 0.4753. It also gave a CI value [2, 56] of 0.709, a Fa value [2, 56] of 0.6924 and a CI value [2, 57] of 0.693. For the same compound, the Fa value [2, 57] was 0.8888, the CI value [2, 58] was 0.608 and the Fa value [2, 58] was 0.9844. It also gave a CI value [2, 59] of 0.707, a Fa value [2, 59] of 0.3361 and a CI value [2, 60] of 0.872. It also gave a Fa value [2, 60] of 0.4089, a CI value [2, 61] of 0.849 and a Fa value [2, 61] of 0.5994. For the same compound, the CI value [2, 62] was 0.717, the Fa value [2, 62] was 0.8350 and the CI value [2, 63] was 0.599. It also gave a Fa value [2, 63] of 0.9588, a CI value [2, 64] of 0.793 and a Fa value [2, 64] of 0.2551. It also gave a CI value [2, 65] of 0.839, a Fa value [2, 65] of 0.3812 and a CI value [2, 66] of 0.715. The Fa value [2, 66] was 0.8536, the CI value [2, 67] was 0.627 and the Fa value [2, 67] was 0.9689. It also gave a CI value [2, 68] of 0.725, a Fa value [2, 68] of 0.2126 and a CI value [2, 69] of 0.757. It also gave a Fa value [2, 69] of 0.3356, a CI value [2, 70] of 0.760 and a Fa value [2, 70] of 0.7532. For the same compound, the CI value [2, 71] was 0.687, the Fa value [2, 71] was 0.9339 and the CI value [2, 72] was 0.535. For the same compound, the Fa value [2, 72] was 0.9935.
